Source: ChEMBL document CHEMBL1123450, “A theoretical study of the binding of polychlorinated biphenyls (PCBs), dibenzodioxins, and dibenzofuran to human plasma prealbumin” (J Med Chem, 1986)

Test: KPCB/ K352 ratio of the compound

## O=C1C(Cl)=CC(=C2C=C(Cl)C(=O)C(Cl)=C2)C=C1Cl
  Ratio: 2.92

## Oc1ccc(-c2cc(Cl)c(Cl)c(Cl)c2Cl)cc1
  Ratio: 24.3

## Oc1c(I)cc(I)cc1I
  Ratio: 33.8

## Oc1c(Cl)cc(-c2cc(Cl)c(O)c(Cl)c2)cc1Cl
  Ratio: 45.5

## Oc1c(Cl)cc(-c2ccc(Cl)cc2)cc1Cl
  Ratio: 27.5

## Oc1c(Cl)cc(Cl)cc1-c1ccccc1
  Ratio: 1

## Clc1cc(-c2cc(Cl)c(Cl)c(Cl)c2)cc(Cl)c1Cl
  Ratio: 27.7

## Oc1c(Cl)cc(-c2ccccc2)cc1Cl
  Ratio: 45

## Oc1ccc(-c2c(Cl)cc(Cl)cc2Cl)cc1
  Ratio: 2.91
